Measurements as given in paper PMC8466373, “Plant-Derived and Dietary Hydroxybenzoic Acids—A Comprehensive Study of Structural, Anti-/Pro-Oxidant, Lipophilic, Antimicrobial, and Cytotoxic Activity in MDA-MB-231 and MCF-7 Cell Lines” (Nutrients, 2021).
pIC50: −log10 of the molar value. In brackets after ≈: the same amount, converted by molar mass. Read-outs that look alike come from different tables or passages of the source.

Experiments:
[1] = test system: Salmonella enteritidis (NCTC 4776); test: MIC by serial dilution in agar medium; format: cell-based; conditions: Salmonella enterica
Description: (§1) The following bacterial strains were used in this study: Escherichia coli (PCM 2857), Pseudomonas aeruginosa (PCM 2720), Bacillus subtilis (PCM 2850), Staphylococcus aureus (PCM 2267), Salmonella enteritidis (NCTC 4776), and Candida albicans (PCM 2566-FY). The microbial strains were bought from the Polish Collection of Microorganisms (Wroclaw, Poland) or the American Type Culture Collection.
(§2) The MIC (minimal inhibitory concentration) was determined by serial dilution of the tested compound in an agar medium, to which the appropriate inoculum of microorganisms was then added and incubated. Escherichia coli, Pseudomonas aeruginosa, Staphylococcus aureus, Bacillus subtilis, Salmonella enteritidis, and Candida albicans were grown overnight and then resuspended in physiological saline to an optical density at 600 nm (OD = 600) of 0.60, corresponding to 5.0 × 10^8 CFU/mL. Bacteria (0.1 mL of the reconstituted suspension) were seeded onto sterile Mueller–Hinton agar plates, to which previously suitable amounts of the tested compounds were added to reach the desired concentration. Tested chemicals were dissolved in DMSO solution. Negative controls were agar plates, to which DMSO was added, while positive controls were plates with gentamycin (in the case of bacteria) or flucanozole (in the case of fungi). The plates were incubated at 37 °C for 24 h. The lowest concentration without visible bacterial growth was determined as the MIC.

[2] = test system: E. coli, P. aeruginosa, S. aureus, B. subtilis, S. enteritidis, and C. albicans; test: MIC, stated for all tested strains together; format: cell-based; conditions: all of the tested strains
Description: as §1, with “Collection. Bacteria (0.1 mL of the reconstituted suspension) were seeded onto sterile Mueller–Hinton agar plates (Biomaxima), to which previously suitable amounts of the tested compounds were added to give the desired concentration.” for “Collection.”
as §2

[3] = Lipophilicity via RP-HPLC; format: physicochemical
Description: The analyses were carried out on the following chromatographic columns: RP-18e Purospher STAR (C18), 150 mm × 4.0 mm, 5 µm, (Merck, Darmstadt, Germany); RP-8e Purospher STAR (C8), 150 mm × 4.6 mm, 5 µm, (Merck, Darmstadt, Germany); Zorbax Eclipse XDB-CN (CN), 150 mm × 4.6 mm, 5 µm, (Agilent Technologies, Santa Clara, CA, USA); Nucleosil Phenyl (PHE), 250 mm × 4.6 mm, 7 µm, (Supelco, Bellefonte, PA, USA); and Regis Rexchrom IAM.PC.DD.2 (IAM), 100 mm × 4.6 mm, 10 µm, (Regis Technologies Inc., Morton Grave, IL, USA). The experimental conditions and the calculations were as described in [46].

A. fumigatus = conditions: concentration of 30 mg/mL; cited from earlier work
MDA-MB-231 cells [4] = test system: MDA-MB-231 cells; design: method as in PMID 31746356; conditions: incubated for 48 h; cited from earlier work
[5] = cited from earlier work; for inhibition: read-out: DPPH radical scavenging activity (%)
[6] = cited from earlier work
[7] = Pro-oxidant activity, Trolox oxidation assay; format: biochemical; conditions: after 120 min of incubation, concentrations of 35 μM
Description: The pro-oxidant activity was expressed as the rate of Trolox oxidation according to the protocol described in [45]. First, a mixture of 0.5 mL of Trolox (C = 0.4 mM; in water) with 0.5 mL of H2O2 (C = 0.2 mM; in water), 0.5 mL of HRP (C = 0.04 μM; in phosphate buffer; pH = 7), 5 μL of the tested compounds (C = 50 μM; in methanol), and […] of distilled water was prepared as the tested sample. […] The control contained methanol instead of the tested substance.

MCF-7 cells = test: Cytotoxicity, neutral red (NR) assay; format: cell-based, human; conditions: for Cytotoxicity (mM) in Cell Line MCF-7, IC50: 48 h treatment, neutral red assay
Description: (§3) Briefly, MCF-7 cells were cultured in EMEM (Biological Industries, Israel) medium supplemented with 10% fetal calf serum (Gibco). MDA-MB-231 cells were cultured in Leibovitz‘s L15 (Biological Industries, Beit HaEmek, Israel) medium supplemented with 10% fetal calf serum (Gibco). The MCF-7 cells were incubated in a 5% CO2 atmosphere at 37 °C, whereas the MDA-231 cells were incubated in a 100% air atmosphere at 37 °C.
(§4) Cytotoxicity evaluation was conducted to assess the impact of hydroxybenzoic acids on the proliferation of MCF-7 and MDA-MB-231 cells, which was measured via neutral red (NR) assay. In brief, cells were seeded in 96-well microplates (TPP, Switzerland) at a density of 2 × 10^4 cells/well in 100 μL of culture medium. At least three independent experiments in six replicate wells were conducted per concentration. Twenty-four hours after cell seeding, cells were treated with increasing concentrations of hydroxybenzoic acids (0.02–5 mM) for forty-eight hours. After treatment, cells were incubated for 3 h at 37 °C with 100 µL of neutral red solution (stock solution of NR) (Sigma-Aldrich), and then 5 mg/mL of PBS was diluted 1:100 in cell culture medium, incubated for 12 h at 37 °C, and centrifuged to remove any undissolved NR powder. […] After 15 min of gentle shaking, optical density was read at 540 nm with an Infinite M200 plate reader spectrophotometer (Tecan, Austria).

MDA-MB-231 cells [8] = test: Cytotoxicity, neutral red (NR) assay; format: cell-based, human; conditions: for Cytotoxicity (mM) in Cell Line MDA-MB-231, IC50: 48 h treatment, neutral red assay
Description: as §3, §4

[9] = test system: S. aureus, B. cereus, M. flavus, P. aeruginosa, E. coli, and E. cloacae; conditions: all mentioned strains; cited from earlier work
[10] = test system: HepG2 hepatocellular carcinoma cells; conditions: 100 µM, incubation time: 4 days; cited from earlier work
[11] = Salmonella enteritidis, read-out: MIC
[12] = CDPPH = 60 μM, t = 30 min, read-out: DPPH, IC50
[13] = CDPPH = 90 μM, t = 30 min, read-out: DPPH, IC50
[14] = CDPPH = 1 mM, t = 20 min, read-out: DPPH, IC50
[15] = C = 0,001 mg/mL, λ = 593 nm, t = 30 min
[16] = C = 10 μM, CDPPH = 100 μM, t = 30 min
[17] = C = 15 μM, CDPPH = 60 μM, t = 30 min

SMILES	MIC [1, 11] [µg/mL]	MIC [2] [µg/mL]	log kw ([3]; C8 column)	ϕ0 ([3]; C8 column)	log kw ([3]; C18 column)	ϕ0 ([3]; C18 column)	log kw ([3]; CN column)	ϕ0 ([3]; CN column)	log kw ([3]; IAM column)	ϕ0 ([3]; IAM column)	log kw ([3]; PHE column)	ϕ0 ([3]; PHE column)	concentration that inhibited colony formation (MDA-MB-231 cells [4])	pIC50 [5, 12]	pIC50 [5, 13]	pIC50 [5, 14]	FRAP [6, 15]	degree of Trolox oxidation [7] [%]	inhibition [5, 16] [%]	inhibition [5, 17] [%]	also measured
O=C(O)c1cccc(O)c1O [2,3-DHB, 2,3-Dihydroxybenzoic acid]	5000 (≈ 32.4 mM)	5000 (≈ 32.4 mM)	1.70	0.87	2.47	0.60	1.59	1.16	2.17	1.08	1.25	0.93	~ 500 µM								zone of inhibition (A. fumigatus): 30 mm
O=C(O)c1cc(O)ccc1O [2,5-DHB, 2,5-dihydroxybenzoic acid]	3000 (≈ 19.5 mM)												100 µM	5.20	4.43	7.53	≈ 0.98 (C = 0,001 mg/mL), λ = 593 nm, t = 30 min) [73] μM Fe^2+				pIC50 ([5]; CDPPH = 60 μM, t = 60 min, read-out: DPPH, IC50): 5.31; FRAP ([6]; C = 5 μM, λ = 594 nm, t = n.d.): 75.39 (C = 5 μM, λ = 594 nm, t = n.d.) [62] μM Fe^2+; FRAP ([6]; C = 50 μM, λ = 594 nm, t = n.d.): 236.86 (C = 50 μM, λ = 594 nm, t = n.d.) [62] μM Fe^2+
O=C(O)c1c(O)cccc1O [2,6-DHB, 2,6-dihydroxybenzoic acid]	3000 (≈ 19.5 mM)		1.17	1.05	2.99	0.68	1.49	1.08	1.31	1.14	0.87	1.05						9.52			pIC50 ([5]; CDPPH = 500 μM, t = 30 min, read-out: DPPH, IC50): 3.64
O=C(O)c1cc(O)c(O)c(O)c1 [3,4,5-THB, 3,4,5-trihydroxybenzoic acid]			0.50	0.91	1.91	0.37	1.24	1.06	0.15	1.44	0.83	0.33				7.63	≈ 1.03 (C = 0,001 mg/mL), λ = 593 nm, t = 30 min) [73] μM Fe^2+		~70	88.5	inhibition of growth of MCF-7 cells (MCF-7 cells; concentration of 5 mM): almost completely; inhibition of growth of MDA-MB-231 cells (MDA-MB-231 cells [8]; concentration of 5 mM): almost completely; inhibition ([5]; C ≈ 0.7 mM, CDPPH = 200 μM, t = 30 min): 40%; pIC50 ([5]; after 30 min of incubation with a free radical, read-out: DPPH IC50): 5.38
O=C(O)c1ccc(O)c(O)c1 [3,4-DHB, 3,4-dihydroxybenzoic acid]		2000 (≈ 13 mM)	1.00	0.83	2.32	0.45	1.58	1.08	0.44	1.13	1.07	0.50		4.80		7.24	≈ 0.65 (C = 0,001 mg/mL), λ = 593 nm, t = 30 min) [73] μM Fe^2+	8.44	~70	~88.5	MIC [1]: 2000 µg/mL (≈ 13 mM); Cytotoxicity (mM) in Cell Line MCF-7, IC50 (MCF-7 cells): nontoxic; Cytotoxicity (mM) in Cell Line MDA-MB-231, IC50 (MDA-MB-231 cells [8]): nontoxic; pIC50 ([5]; CDPPH = 50 μM, t = 30 min, read-out: DPPH, IC50): 5.42; MIC [9]: 3000 µg/mL (≈ 19.5 mM); HepG2 cells' viability [10]: 40%
O=C(O)c1cc(O)cc(O)c1 [3,5-DHB, 3,5-dihydroxybenzoic acid]	2000 (≈ 13 mM)		0.90	0.83	2.56	0.45	1.78	1.07	0.51	1.16	1.03	0.55			3.41		≈ 0.03 (C = 0,001 mg/mL), λ = 593 nm, t = 30 min) [73] μM Fe^2+	8.03			Cytotoxicity (mM) in Cell Line MCF-7, IC50 (MCF-7 cells): nontoxic; Cytotoxicity (mM) in Cell Line MDA-MB-231, IC50 (MDA-MB-231 cells [8]): nontoxic
